# Target: T1, human TGR5 (Homo sapiens, UniProt Q8TDU6)
# T1 construct: expressed in transfected cells; host or cells: HEK293
# T1 sequence (Q8TDU6 1-330): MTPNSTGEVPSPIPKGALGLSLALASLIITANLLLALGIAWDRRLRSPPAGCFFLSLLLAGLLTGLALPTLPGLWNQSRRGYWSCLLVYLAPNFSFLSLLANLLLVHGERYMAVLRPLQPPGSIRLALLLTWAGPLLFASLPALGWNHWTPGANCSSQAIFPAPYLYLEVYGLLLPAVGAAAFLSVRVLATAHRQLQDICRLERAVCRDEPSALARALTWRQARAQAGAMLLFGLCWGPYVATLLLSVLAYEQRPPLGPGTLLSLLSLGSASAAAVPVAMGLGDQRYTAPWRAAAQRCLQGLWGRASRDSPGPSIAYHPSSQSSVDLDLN
# Experiment: Cell-based TGR5 assay (cAMP generation, HTRF)
# Conditions: HEK293 cells stably transfected with human TGR5; cAMP by HTRF; 30 minutes at 37° C.; read-out: pEC50 Human TGR5 (converted)
# Protocol: A primary cell-based assay utilized HEK293 cells stably transfected with a gene encoding human TGR5. Cells were treated with candidate TGR5 activators and assessed for increased intercellular levels of cAMP.
# TGR5-mediated cAMP generation was measured using a homogeneous time resolved fluorescence (HTRF) detection method (Cisbio). Test compounds were dissolved in DMSO to a final concentration of 10 mM. Serial 3-fold dilutions of the stock solution were made in DMSO, and these solutions were diluted 100-fold into Hanks Balanced Salt Solution supplemented with 10 mM HEPES pH 7.4, 0.003% Tween 20 and 0.5 mM isobutyl methylxanthine. Five microliters of diluted test compounds were added to wells of a black 384 well plate.
# Cells grown overnight at 37° C./5% CO2 were harvested and resuspended in Hanks Balanced Salt Solution containing 10 mM HEPES to a concentration of […]. Five microliters (2500 cells) were dispensed into each well of the 384 well plate containing compound dilutions and incubated at 37° C. for 30 minutes. Each compound was tested in duplicate at 12 concentrations ranging from 0.05 nM to 10 μM.
# Following incubation with test compounds, cAMP was detected through the successive addition of 5 μL each of cAMP labeled with the modified allophyocyanin dye d2 (cAMP-d2) and cryptate-labeled anti-cAMP in lysis buffer, and reading HTRF per the manufacturer's instructions.
# A standard curve was used to convert the raw HTRF data into [cAMP]. The concentration of cAMP was plotted against log [test compound] and the resulting curves were fit to a 3-parameter logistical equation using GraphPad Prism to determine pEC50 (the negative log of the EC50) and the magnitude of the response.
row,EC50,Compound
1,< 100 nM,"CCOC(=O)NCCCN(CCCCSc1ccc(Cl)c(CNC2(c3cnccc3-c3ccccc3OC3CC3)CC2)c1)C(=O)[C@@H](O)[C@@H](O)[C@H](O)[C@@H](O)CO [Compound I-574, ethyl N-{3-[(2S,3S,4R,5S)-N-[4-({4-chloro-3-[({1-[4-(2-cyclopropoxyphenyl)pyridin-3-yl]cyclopropyl}amino)methyl]phenyl}sulfanyl)butyl]-2,3,4,5,6-pentahydroxyhexanamido]propyl}carbamate]"
2,< 100 nM,"CC(C)(OCc1cc(Cl)ccc1Cl)c1cnccc1-c1ccccc1OC1CC1 [Compound I-740, 4-(2-cyclopropoxyphenyl)-3-(2-((2,5-dichlorobenzyl)oxy)propan-2-yl)pyridine]"
3,< 100 nM,"O=C([C@@H](O)[C@@H](O)[C@H](O)[C@@H](O)CO)N(CCCCSc1ccc(Cl)c(CNC2(c3cnccc3-c3ccccc3OC3CC3)CC2)c1)CCOCCO [Compound I-533, (2S,3S,4R,5S)-N-[4-({4-chloro-3-[({1-[4-(2-cyclopropoxyphenyl)pyridin-3-yl]cyclopropyl}amino)methyl]phenyl}sulfanyl)butyl]-2,3,4,5,6-pentahydroxy-N-[2-(2-hydroxyethoxy)ethyl]hexanamide]"
4,< 100 nM,"Cc1ccc(C(C)CCCN(C(=O)[C@@H](O)[C@@H](O)[C@H](O)[C@@H](O)CO)C2CCS(=O)(=O)CC2)cc1CNC1(c2cnccc2-c2ccccc2OC2CC2)CC1 (stereo partly drawn) [Compound I-306, (2S,3S,4R,5S)-N-(4-{3-[({1-[4-(2-cyclopropoxyphenyl)pyridin-3-yl]cyclopropyl}amino)methyl]-4-methylphenyl}pentyl)-N-(1,1-dioxo-1λ^6-thian-4-yl)-2,3,4,5,6-pentahydroxyhexanamide]"
5,< 100 nM,"CC(=O)N(CCSc1ccc(Cl)c(COC2(c3cnccc3-c3ccccc3OC3CC3)CC2)c1)C[C@H](O)[C@@H](O)[C@H](O)[C@H](O)CO [Compound I-505, N-(2-{[4-chloro-3-({1-[4-(2-cyclopropoxyphenyl)pyridin-3-yl]cyclopropoxy}methyl)phenyl]sulfanyl}ethyl)-N-[(2S,3R,4R,5R)-2,3,4,5,6-pentahydroxyhexyl]acetamide]"
6,< 100 nM,"CC(=O)NCCCN(CCCCSc1ccc(Cl)c(COC2(c3cnccc3-c3ccccc3OC3CC3)CC2)c1)C(=O)[C@@H](O)[C@@H](O)[C@H](O)[C@@H](O)CO [Compound I-566, (2S,3S,4R,5S)-N-(4-{[4-chloro-3-({1-[4-(2-cyclopropoxyphenyl)pyridin-3-yl]cyclopropoxy}methyl)phenyl]sulfanyl}butyl)-N-(3-acetamidopropyl)-2,3,4,5,6-pentahydroxyhexanamide]"
7,< 100 nM,"CN(C[C@H](O)[C@@H](O)[C@H](O)[C@H](O)CO)C(=O)CCCCSc1ccc(Cl)c(COC2(c3cnccc3-c3ccccc3OC3CC3)CC2)c1 [Compound I-682, 5-{[4-chloro-3-({1-[4-(2-cyclopropoxyphenyl)pyridin-3-yl]cyclopropoxy}methyl)phenyl]sulfanyl}-N-methyl-N-[(2S,3R,4R,5R)-2,3,4,5,6-pentahydroxyhexyl]pentanamide]"
8,< 100 nM,"Cc1cc(COC2(c3cnccc3-c3ccccc3OC3CC3)CC2)c(Cl)cc1CCCCNC(=O)N[C@@H](C)C(=O)N[C@@H](C)C(=O)N[C@@H](C)C(=O)O [Compound I-112, (2S)-2-[(2S)-2-[(2S)-2-[({4-[5-chloro-4-({1-[4-(2-cyclopropoxyphenyl)pyridin-3-yl]cyclopropoxy}methyl)-2-methylphenyl]butyl}carbamoyl)amino]propanamido]propanamido]propanoic acid]"
9,< 100 nM,"Cc1ccc([C@H](C)CCCC(=O)N(C)C[C@H](O)[C@@H](O)[C@H](O)[C@H](O)CO)cc1CNC1(c2cnccc2-c2ccccc2OC2CC2)CC1 (single isomer, unassigned) [Compound I-351]"
10,< 100 nM,"Cc1cc(COC2(c3cnccc3-c3ccccc3OC3CC3)CC2)c(Cl)cc1CCCCC(=O)N(C)C[C@H](O)[C@@H](O)[C@H](O)[C@H](O)CO [Compound I-146, 5-[5-chloro-4-({1-[4-(2-cyclopropoxyphenyl)pyridin-3-yl]cyclopropoxy}methyl)-2-methylphenyl]-N-methyl-N-[(2S,3R,4R,5R)-2,3,4,5,6-pentahydroxyhexyl]pentanamide]"
11,< 100 nM,"O=C(NCCCCc1cc(Cl)c(COC2(c3cnccc3-c3ccccc3OC3CC3)CC2)cc1Cl)[C@@H](O)[C@@H](O)[C@H](O)[C@@H](O)CO (stereo in doubt) [Compound I-185, (2S,3S,4R,5S)-N-{4-[2,5-dichloro-4-({1-[4-(2-cyclopropoxyphenyl)pyridin-3-yl]cyclopropoxy}methyl)phenyl]butyl}-2,3,4,5,6-pentahydroxyhexanamide]"
12,< 100 nM,"CCN(CCCCNC(=O)NC[C@H](O)[C@@H](O)[C@H](O)[C@H](O)CO)S(=O)(=O)c1ccc(Cl)c(COC2(c3cnccc3-c3ccccc3OC3CC3)CC2)c1 [Compound I-390, 4-chloro-3-((1-(4-(2-cyclopropoxyphenyl)pyridin-3-yl)cyclopropoxy)methyl)-N-ethyl-N-(4-(3-((2S,3R,4R,5R)-2,3,4,5,6-pentahydroxyhexyl)ureido)butyl) benzenesulfonamide]"
13,126 to 1000 nM,"CC(CCCCN)c1ccc(Cl)c(CNC2(c3cnccc3-c3ccccc3OC3CC3)CC2)c1 (single isomer, unassigned) [Compound I-244]"
14,< 100 nM,"NC(=O)CN(CCCCCSc1ccc(Cl)c(CNC2(c3cnccc3-c3ccccc3OC3CC3)CC2)c1)C(=O)[C@@H](O)[C@@H](O)[C@H](O)[C@@H](O)CO [Compound I-610, (2S,3S,4R,5S)-N-(carbamoylmethyl)-N-[5-({4-chloro-3-[({1-[4-(2-cyclopropoxyphenyl)pyridin-3-yl]cyclopropyl}amino)methyl]phenyl}sulfanyl)pentyl]-2,3,4,5,6-pentahydroxyhexanamide]"
15,< 100 nM,"O=C(NCCCCCSc1ccc(Cl)c(COC2(c3cnccc3-c3ccccc3OC3CC3)CC2)c1)N[C@H]1CC[C@H](NC(=O)NC[C@H](O)[C@@H](O)[C@H](O)[C@H](O)CO)CC1 [Compound I-630, 1-(5-{[4-chloro-3-({1-[4-(2-cyclopropoxyphenyl)pyridin-3-yl]cyclopropoxy}methyl)phenyl]sulfanyl}pentyl)-3-[(1r,4r)-4-({[(2S,3R,4R,5R)-2,3,4,5,6-pentahydroxyhexyl]carbamoyl}amino)cyclohexyl]urea]"
16,126 to 1000 nM,"CC(=O)NCCCCN(CCCCSc1ccc(Cl)c(CNC2(c3cnccc3-c3ccccc3OC3CC3)CC2)c1)C(=O)[C@@H](O)[C@@H](O)[C@H](O)[C@@H](O)CO [Compound I-567, (2S,3S,4R,5S)-N-[4-({4-chloro-3-[({1-[4-(2-cyclopropoxyphenyl)pyridin-3-yl]cyclopropyl}amino)methyl]phenyl}sulfanyl)butyl]-N-(4-acetamidobutyl)-2,3,4,5,6-pentahydroxyhexanamide]"
17,< 100 nM,"O=C(NCCOCCSc1ccc(Cl)c(COC2(c3cnccc3-c3ccccc3OC3CC3)CC2)c1)N[C@@H](CO)[C@@H](O)[C@H](O)[C@H](O)CO [Compound I-637, 1-[2-(2-{[4-chloro-3-({1-[4-(2-cyclopropoxyphenyl)pyridin-3-yl]cyclopropoxy}methyl)phenyl]sulfanyl}ethoxy)ethyl]-3-[(2S,3R,4S,5R)-1,3,4,5,6-pentahydroxyhexan-2-yl]urea]"
18,< 100 nM,"CN(C)C(=O)CN(C[C@H](O)[C@@H](O)[C@H](O)[C@H](O)CO)C(=O)CCCCc1cc(Cl)c(COC2(c3cnccc3-c3ccccc3OC3CC3)CC2)cc1Cl [Compound I-221, 5-[2,5-dichloro-4-({1-[4-(2-cyclopropoxyphenyl)pyridin-3-yl]cyclopropoxy}methyl)phenyl]-N-[(dimethylcarbamoyl)methyl]-N-[(2S,3R,4R,5R)-2,3,4,5,6-pentahydroxyhexyl]pentanamide]"
19,< 100 nM,"CS(=O)(=O)NCCCN(CCCCSc1ccc(Cl)c(COC2(c3cnccc3-c3ccccc3OC3CC3)CC2)c1)C(=O)[C@@H](O)[C@@H](O)[C@H](O)[C@@H](O)CO [Compound I-577, (2S,3S,4R,5S)-N-(4-{[4-chloro-3-({1-[4-(2-cyclopropoxyphenyl)pyridin-3-yl]cyclopropoxy}methyl)phenyl]sulfanyl}butyl)-2,3,4,5,6-pentahydroxy-N-(3-methanesulfonamidopropyl) hexanamide]"
